14 compounds from patent publication US9199983B2, “3-aryl-6-aryl-[1,2,4]triazolo[4,3-α]pyridines as inhibitors of cell proliferation and the use thereof” (priority 2010, dated 2015) can be followed below.

Where a name gives a salt, the structure may show the parent alone.

Assay [1] deals with Human lung cancer cell line A549. The assay can be described thus: MTT cancer cell cytotoxicity assay, A549. The class given is cell-based. Conditions: Homo sapiens, A549 cells, 48-72 h. An outline of the steps:
(§1)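 Seeding: HepG2 and A549 at 3000, SMMC7721 at 5000, B16F10 at 2000 cells/well, attached overnight. Compounds (10 μM to 1 nM, triplicate) were applied for 48-72 h at 37 °C, followed by 4 h MTT. A550 minus A660 was fitted for IC50, with untreated wells as maximum and reference-drug total kill as background.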

Another assay relates to caspase-3 activation. The assay can be described thus: Caspase-3 activation (apoptosis induction) in T-47D cells. The class given is cell-based. Conditions: Homo sapiens; T47D cells, 24 h treatment; read-out: EC50 to induce caspase-3 activation, T47D. The method, then:
Identification of 3-(2-methoxyphenyl)-6-(4-methoxyphenyl)-[1,2,4]triazolo[4,3-a]pyridine and analogs as inducers of apoptosis in solid tumor cells
Human breast cancer cell line T-47D and lung cancer cell line A549, growing in DMEM/F12+10% FBS media were seeded to a density of 20000 cells/well in 96-well cell culture plate and grew overnight (18-24 h) in CO2 cell culture incubator at 37° C. Next day the medium were removed by aspiration and […] fresh growth media was added to each well followed by […] of growth media containing 10× concentration of reference or testing compounds with 10% DMSO. Twenty four hours later, cell culture plates were centrifuged at 1000 g for 5 min and the supernatant was removed by emptying contents into a reservoir. Fifty μl of Lysis Buffer (10 mM Tris, pH7.5, 0.1M NaCl, 1 Mm EDTA, 0.01% Triton X-100) was added to each well and the plates were incubated with gentle agitation on an orbital shaker at 4° C. for 30 min. The plates were then centrifuged at 1000 g for 10 min at 4° C. and 20 μl of the supernatant was transferred from each well to a corresponding well in a black 384-well. Twenty μl of caspase-3 assay buffer (20 mM PIPES, pH7.4, 4 Mm EDTA and 0.2% CHAPS) containing 20 μM fluorogenic caspase-3 substrate ((Ac-DEVD)2-R110, AnaSpec Cat #60304-5) was added to each well. The samples were mixed by agitation and incubated at 37° C. for 3 h. The fluorescent intensity of each well was read on a fluorescent plate reader (Varioskan Flash, Thermo Fisher Scientific) with excitation wavelength at 496 nm and emission wavelength at 520 nm. The activity of compounds on caspase-3 activation was determined by plotting the relative fluorescent unit (RFU) against the testing concentrations of the compounds. The EC50 values were determined by fitting the above responding curves into Prism sigmoidal dose-response equation (GraphPad Software, Inc).

For assay [2], the system named is breast cancer cell line T47D. The assay can be described thus: MTT cancer cell cytotoxicity assay, T47D. The class given is cell-based, human. Conditions: Homo sapiens, T47D cells, 48-72 h. An outline of the steps:
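Human T47D breast cancer cells, cultured per ATCC recommendations with 10% fetal bovine serum and penicillin/streptomycin, were plated at 3000 cells/well in 96-well plates. After overnight attachment they were exposed in triplicate to compounds (10 μM to 1 nM) for 48-72 h. MTT was then added for 4 h and the formazan dissolved in DMSO. Absorbance at 550 nm minus 660 nm was fitted in Prism 5 to give IC50.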

The test system of assay [3] is liver cancer cell line SMMC7721. Briefly: MTT cancer cell cytotoxicity assay, SMMC7721. Conditions: Homo sapiens, SMMC-7721, SMMC7721 cells, 48-72 h. The class given is cell-based, human. The method, boiled down:
as §1

The test system of assay [4] is liver cancer cell line HepG2. The assay can be described thus: MTT cancer cell cytotoxicity assay, HepG2. The class given is cell-based, human. Conditions: Homo sapiens, HepG2 cells, 48-72 h. The method, boiled down: as §1
Assay [5] has as its system mouse melanoma cell line B16F10. The assay can be described thus: MTT cancer cell cytotoxicity assay, B16F10. The class given is cell-based. Conditions: Mus musculus, B16-F10, B16F10 cells, 48-72 h. The method, then:
Identification of 3-(2-methoxyphenyl)-6-(4-methoxyphenyl)-[1,2,4]triazolo[4,3-a]pyridine and analogs as inhibitors of cell proliferation that were evaluated with standard MTT cancer cell cytotoxicity assay (IC50)
Human lung cancer cell line A549, breast cancer cell line T47D, liver cancer cell lines HepG2 and SMMC7721 as well as a mouse melanoma cell line B16F10 were used in the study. The cells were cultured in corresponding growth media recommended by American Type Culture Collection (ATCC) with the supplementation of penicillin G (100 U/ml)/streptomycin (100 µg/ml), and 10% fetal bovine serum (Hangzhou Sijiqing Biological Engineering Materials, Co., Ltd. China) at 37° C. in a humidified atmosphere containing 5% CO2. Cells at about 80% confluency were harvested by trypsinization. Cells were centrifuged, re-suspended in fresh growth media and counted. Corresponding numbers of cells were seeded to 96-well cell culture plates (HepG2 cell, T-47D and A549 cells at 3000 cells/well, SMMC-7721 cells at 5000 cells/well and B16F10 cells at 2000 cells/well) in a total volume of […]. Cells were incubated in CO2 incubator over night to allow the cells to attach. In next day, […] of medium containing testing (from 10 μM to 1 nM) or reference compounds was added to each well of the cells. Media without compound were used as 100% control. Cells were treated with each concentration of compounds in triplicates to ensure data accuracy. Cells were incubated with compounds in CO2 incubator for an additional 48-72 h at 37° C. After incubation, cells were removed from the CO2 incubator and […] of 5 mg/ml MTT (3-(4,5-dimethylthiazole-2-yl)-2,5-diphenyltetrazoliumbromide, Sigma) solution in PBS was added to each well. Cells were returned to CO2 incubator and incubated for additional 4 h. After the incubation, media were removed by aspiration and […] DMSO was added to each well. Plates were sealed with aluminum foil and shaked mildly on an orbital shaker for 10 min at room temperature. The absorption was measured at 550 nm with a plate reader (Varioskan Flash, Thermo Fisher Scientific) with 660 nm reading used as background control. The relative absorbance readings were calculated by subtracting readings at 660 nm from that at 550 nm. The relative absorbance was plotted again the concentrations of the testing compounds and the plots were fitted with a one-site lg(IC50) equation using Prism 5 software (GraphPad Software, Inc). The equation used in the curve fitting is as follows: relative absorbance reading=background reading+(maximal reading−brackground reading)/(1+10 ^(compound concentration-log IC50)). The background reading used in the calculation was obtained with 100% cell death using a reference anticancer drug, whereas the maximal reading was obtained in the well with no added compound. The IC50 value calculated from the equation represents the cytotoxic potency of a particular compound.

In the case of `COc1ccccc1-c1nnc2ccc(-c3ccc(N(C)C)cc3)cn12` [Example 17, 6-(4-Dimethylaminophenyl)-3-(2-methoxyphenyl)-[1,2,4]triazolo[4,3-a]pyridine], the IC50 in assay [1] was found to be 29 nM; in assay [2], 65 nM; in assay [3] it was 14 nM; in assay [4] it was 48 nM. In the assay on caspase-3 activation, the EC50 worked out at 86 nM.

In the case of `COc1ccc(-c2ccc3nnc(-c4ccccc4OC)n3c2)cc1O` [Example 20, 6-(3-Hydroxy-4-methoxyphenyl)-3-(2-methoxyphenyl)-[1,2,4]triazolo[4,3-a]pyridine], the IC50 is 13 nM in assay [1]; 18 nM in assay [2]; over 10000 nM in assay [3]; 18 nM in assay [5]; 11 nM in assay [4]. The EC50 in the assay on caspase-3 activation was found to be 16 nM.

`COc1ccc(-c2ccc3nnc(-c4ccccc4OC)n3c2)cc1N` [Example 46, 6-(3-Amino-4-methoxyphenyl)-3-(2-methoxyphenyl)-[1,2,4]triazolo[4,3-a]pyridine hydrochloride]: the IC50 in assay [1] was found to be 9.4 nM; in assay [2] it was 9.7 nM; in assay [3], 5.7 nM; in assay [5] it was 3.7 nM; in assay [4], 9.9 nM. In addition, the EC50 in the assay on caspase-3 activation is 23 nM.

Turning to `CNc1ccc(-c2ccc3nnc(-c4ccccc4OC)n3c2)cc1` [Example 48, 6-(4-Methylaminophenyl)-3-(2-methoxyphenyl)-[1,2,4]triazolo[4,3-a]pyridine hydrochloride], the IC50 in assay [1] was determined as 26 nM; in assay [2], 18 nM; in assay [3] it was 11 nM; in assay [4], 31 nM. The EC50 in the assay on caspase-3 activation amounted to 74 nM.

For `COc1ccc(-c2ccc3nnc(-c4ccc(Cl)cc4OC)n3c2)cc1F` [Example 49, 3-(4-Chloro-2-methoxyphenyl)-6-(3-fluoro-4-methoxyphenyl)-[1,2,4]triazolo[4,3-a]pyridine], the IC50 in assay [1] was 4.9 nM; in assay [2], 4.5 nM; in assay [3], 4.6 nM; in assay [5] it was 4.9 nM; in assay [4], 3.3 nM. Moreover, the EC50 in the assay with caspase-3 activation turned out to be 9.3 nM.

Consider `COc1ccc(-c2ccc3nnc(-c4ccc(Cl)cc4OC)n3c2)cc1N` [Example 50, 6-(3-Amino-4-methoxyphenyl)-3-(4-chloro-2-methoxyphenyl)-[1,2,4]triazolo[4,3-a]pyridine], for which the half-inhibitory concentration (IC50) in assay [1] came out at 1.7 nM; in assay [2], 1.1 nM; in assay [3] it was 1.3 nM; in assay [5], 1.6 nM; in assay [4], 1.4 nM. The EC50 with caspase-3 activation is 3.5 nM.

Turning to `COc1ccc(-c2ccc3nnc(-c4ccc(C)cc4OC)n3c2)cc1O` [Example 51, 6-(3-Hydroxy-4-methoxyphenyl)-3-(2-methoxy-4-methylphenyl)-[1,2,4]triazolo[4,3-a]pyridine], the IC50 in assay [1] was 4 nM; in assay [2] it was 1.1 nM; in assay [3] it was over 10000 nM; in assay [5], 2.1 nM; in assay [4], 1.1 nM. The EC50 in the assay on caspase-3 activation amounted to 2.8 nM.

Regarding `COc1ccc(-c2ccc3nnc(-c4ccc(C)cc4OC)n3c2)cc1N` [Example 52, 6-(3-Amino-4-methoxyphenyl)-3-(2-methoxy-4-methylphenyl)-[1,2,4]triazolo[4,3-a]pyridine], the IC50 amounted to 2.6 nM in assay [1]; 2 nM in assay [2]; 1.8 nM in assay [3]; 2.1 nM in assay [5]; 2.3 nM in assay [4]. The EC50 in the assay on caspase-3 activation was found to be 5.4 nM.

In the case of `COc1ccc(-c2ccc3nnc(-c4ccc(C)cc4OC)n3c2)cc1F` [Example 53, 6-(3-Fluoro-4-methoxyphenyl)-3-(2-methoxy-4-methylphenyl)-[1,2,4]triazolo[4,3-a]pyridine], the IC50 in assay [1] was 7.4 nM; in assay [2], 6.7 nM; in assay [3], 8.3 nM; in assay [5] it was 6.2 nM; in assay [4], 5.7 nM. The 50% effective concentration (EC50) in the assay with caspase-3 activation was 9.1 nM.

As to `COc1ccc(-c2ccc3nnc(-c4ccc(OC)cc4OC)n3c2)cc1` [Example 71, 3-(2,4-Dimethoxyphenyl)-6-(4-methoxyphenyl)-[1,2,4]triazolo[4,3-a]pyridine], the IC50 in assay [1] was determined as 16 nM; in assay [2], 22 nM; in assay [3] it was 8.7 nM; in assay [4], 15 nM. In addition, the EC50 with caspase-3 activation was found to be 117 nM.

`CNc1ccc(-c2ccc3nnc(-c4ccc(Cl)cc4OC)n3c2)cc1` [Example 88, 3-(4-Chloro-2-methoxyphenyl)-6-(4-methylaminophenyl)-[1,2,4]triazolo[4,3-a]pyridine]: the 50% inhibitory concentration (IC50) in assay [1] was determined as 4.4 nM; in assay [2] it was 3.6 nM; in assay [3], 1.8 nM; in assay [5], 5.1 nM; in assay [4], 6 nM.

As for `COc1cc(Cl)ccc1-c1nnc2ccc(-c3ccc(C)c(N)c3)cn12` [Example 90, 6-(3-Amino-4-methylphenyl)-3-(4-chloro-2-methoxyphenyl)-[1,2,4]triazolo[4,3-a]pyridine], the IC50 in assay [1] amounted to 7.1 nM; in assay [2], 5.5 nM; in assay [3], 2.3 nM; in assay [5] it was 4.6 nM; in assay [4], 5.4 nM.

Turning to `COc1cc(C)ccc1-c1nnc2ccc(-c3ccc(C)c(N)c3)cn12` [Example 91, 6-(3-Amino-4-methylphenyl)-3-(4-methyl-2-methoxyphenyl)-[1,2,4]triazolo[4,3-a]pyridine], the IC50 in assay [1] amounted to 42 nM; in assay [2] it was 31 nM; in assay [3], 13 nM; in assay [5] it was 23 nM; in assay [4], 39 nM.

Consider `CNc1ccc(-c2ccc3nnc(-c4ccc(C)cc4OC)n3c2)cc1` [Example 92, 6-(4-Methylaminophenyl)-3-(4-methyl-2-methoxyphenyl)-[1,2,4]triazolo[4,3-a]pyridine], for which the IC50 in assay [1] was found to be 11 nM; in assay [2], 8.8 nM; in assay [3], 23 nM; in assay [5] it was 7.7 nM; in assay [4], 23 nM.

As usually defined, the IC50 is the midpoint of a concentration-inhibition curve. Read a high IC50 as weaker potency in that assay. A word on the EC50: it is the concentration needed to bring the measured effect to its halfway point.
